For one assay, the target named is T1, human TLR7 (Homo sapiens, UniProt Q9NYK1).
T1 construct: host or cells: HEK-Blue cells
T1 sequence (Q9NYK1 27-1049): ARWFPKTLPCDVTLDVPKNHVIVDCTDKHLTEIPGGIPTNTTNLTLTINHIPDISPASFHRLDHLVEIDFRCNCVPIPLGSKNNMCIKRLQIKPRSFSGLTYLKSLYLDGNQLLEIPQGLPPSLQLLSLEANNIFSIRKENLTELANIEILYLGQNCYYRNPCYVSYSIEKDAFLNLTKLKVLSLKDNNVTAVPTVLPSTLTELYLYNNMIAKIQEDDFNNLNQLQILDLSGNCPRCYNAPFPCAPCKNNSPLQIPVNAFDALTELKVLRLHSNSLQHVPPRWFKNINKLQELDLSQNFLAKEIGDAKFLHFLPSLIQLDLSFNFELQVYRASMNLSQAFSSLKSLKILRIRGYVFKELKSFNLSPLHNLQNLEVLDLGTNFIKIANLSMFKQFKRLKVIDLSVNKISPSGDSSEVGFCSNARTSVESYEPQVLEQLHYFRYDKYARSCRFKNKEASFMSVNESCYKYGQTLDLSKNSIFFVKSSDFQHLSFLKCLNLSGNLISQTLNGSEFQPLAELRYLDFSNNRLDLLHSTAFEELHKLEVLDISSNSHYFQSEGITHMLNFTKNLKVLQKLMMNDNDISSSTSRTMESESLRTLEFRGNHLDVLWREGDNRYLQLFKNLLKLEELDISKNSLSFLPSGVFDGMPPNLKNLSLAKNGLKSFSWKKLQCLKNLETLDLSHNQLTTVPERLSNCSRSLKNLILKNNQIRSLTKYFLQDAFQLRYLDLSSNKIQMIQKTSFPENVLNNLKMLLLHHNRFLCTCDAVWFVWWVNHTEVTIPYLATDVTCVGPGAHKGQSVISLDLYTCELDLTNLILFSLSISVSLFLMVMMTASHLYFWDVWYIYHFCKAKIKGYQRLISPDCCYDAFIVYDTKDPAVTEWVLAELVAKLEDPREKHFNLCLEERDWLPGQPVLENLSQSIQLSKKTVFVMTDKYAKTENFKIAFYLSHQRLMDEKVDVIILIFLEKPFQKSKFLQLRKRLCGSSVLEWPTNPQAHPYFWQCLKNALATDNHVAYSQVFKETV
Nature of the assay: TLR7 inhibition reporter assay (HEK-Blue SEAP). It counts as cell-based. As to conditions: HEK-Blue cells overexpressing human TLR7, gardiquimod 7.5 μM, 22 hour incubation. In short, it runs like this:
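Cells (15000/well for TLR7, 20,000 for TLR8) were treated with compounds over 0.05 nM-50 μM final. After 22 h at 37° C, 5% CO2, SEAP was measured with HEK-Blue Detection reagent; percent inhibition was taken as reduction of agonist-plus-DMSO signal relative to a known inhibitor.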
A general note: Reporter assays use an easily measured gene product as a stand-in for the process of interest.

In the next assay the target is T2, human TLR9 (Homo sapiens, UniProt Q9NR96).
T2 construct: host or cells: HEK-Blue cells
T2 sequence (Q9NR96 26-1032): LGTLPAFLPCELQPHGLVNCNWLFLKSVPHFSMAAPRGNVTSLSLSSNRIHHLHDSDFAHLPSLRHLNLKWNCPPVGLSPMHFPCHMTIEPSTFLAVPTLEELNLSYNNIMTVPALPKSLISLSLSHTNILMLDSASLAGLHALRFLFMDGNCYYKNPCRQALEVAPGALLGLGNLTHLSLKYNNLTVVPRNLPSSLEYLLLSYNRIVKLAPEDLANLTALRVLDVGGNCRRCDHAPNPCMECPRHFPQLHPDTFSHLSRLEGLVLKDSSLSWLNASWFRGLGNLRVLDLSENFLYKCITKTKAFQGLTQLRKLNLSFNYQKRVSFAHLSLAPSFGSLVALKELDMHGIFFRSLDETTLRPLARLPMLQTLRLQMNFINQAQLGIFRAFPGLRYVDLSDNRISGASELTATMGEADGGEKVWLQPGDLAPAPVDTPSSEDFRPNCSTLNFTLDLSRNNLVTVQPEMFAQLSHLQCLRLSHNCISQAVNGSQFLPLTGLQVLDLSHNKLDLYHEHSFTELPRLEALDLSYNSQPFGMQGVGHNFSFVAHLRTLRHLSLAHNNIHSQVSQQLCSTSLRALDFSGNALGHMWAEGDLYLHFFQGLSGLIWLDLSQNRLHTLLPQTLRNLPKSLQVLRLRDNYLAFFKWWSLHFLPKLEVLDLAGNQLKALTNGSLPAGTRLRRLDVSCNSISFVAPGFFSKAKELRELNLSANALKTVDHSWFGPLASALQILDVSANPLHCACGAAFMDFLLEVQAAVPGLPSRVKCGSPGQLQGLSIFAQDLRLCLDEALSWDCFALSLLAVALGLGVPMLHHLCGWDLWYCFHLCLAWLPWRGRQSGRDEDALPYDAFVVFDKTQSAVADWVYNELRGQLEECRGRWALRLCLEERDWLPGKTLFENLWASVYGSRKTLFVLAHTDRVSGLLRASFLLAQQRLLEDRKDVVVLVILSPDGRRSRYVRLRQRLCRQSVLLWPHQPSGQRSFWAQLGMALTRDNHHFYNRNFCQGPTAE
Nature of the assay: TLR9 inhibition reporter assay (HEK-Blue SEAP). The format is cell-based. The note with it: HEK-Blue cells overexpressing human TLR9, ODN2006 5 nM, 22 hour incubation. In short, it runs like this:
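Human TLR7/8/9 HEK-Blue reporter lines; dose range 0.05 nM–50 μM; 30 min RT preincubation; stimulus gardiquimod 7.5 μM / R848 15.9 μM / ODN2006 5 nM respectively; 22 h, 37 °C; SEAP detected colorimetrically.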

As to `COc1cc(-c2cc3[nH]c(=O)n(C4CCC(N5CCC6(CC5)COC6)CC4)c3cc2C(C)C)cn2ncnc12` (centres unmarked) [Example 240, 1-(4-(2-oxa-7-azaspiro[3.5]nonan-7-yl)cyclohexyl)-6-isopropyl-5-(8-methoxy-[1,2,4]triazolo[1,5-a]pyridin-6-yl)-1,3-dihydro-2H-benzo[d]imidazol-2-one], the half-maximal inhibitory concentration (IC50) (commonly the concentration that inhibits the measured activity by half) at human TLR7 was 3.52 nM; at human TLR9, 4.43 µM.
With `COc1cc(-c2cc3[nH]c(=O)n(C4CCC(N5CC6(CCOCC6)C5)CC4)c3cc2C(C)C)cn2ncnc12` (single isomer, unassigned) [Example 236, 1-(4-(7-oxa-2-azaspiro[3.5]nonan-2-yl)cyclohexyl)-6-isopropyl-5-(8-methoxy-[1,2,4]triazolo[1,5-a]pyridin-6-yl)-1,3-dihydro-2H-benzo[d]imidazol-2-one], the concentration for half-maximal inhibition (IC50) came to 3.54 nM against human TLR7 and 2.59 µM against human TLR9.
The corresponding values for `CCc1cc2c(cc1-c1cc(OC)c3ncnn3c1)[nH]c(=O)n2[C@@H]1CCCN(CC2CCCC2)C1` [Example 209, (R)-1-(1-(cyclopentylmethyl)piperidin-3-yl)-6-ethyl-5-(8-methoxy-[1,2,4]triazolo[1,5-a]pyridin-6-yl)-1,3-dihydro-2H-benzo[d]imidazol-2-one] are 7.96 nM and 12.7 µM.
The corresponding values for `COc1cc(-c2cc3[nH]c(=O)n([C@H]4CC[C@@H](NCC(C)(C)C)CC4)c3cc2C(C)C)cn2ncnc12` [Example 197, 6-isopropyl-5-(8-methoxy-[1,2,4]triazolo[1,5-a]pyridin-6-yl)-1-((1s,4s)-4-(neopentylamino)cyclohexyl)-1,3-dihydro-2H-benzo[d]imidazol-2-one] are 0.8 nM and 6.26 µM.
As to `CCC(CC)CN[C@H]1CC[C@@H](n2c(=O)[nH]c3cc(-c4cc(OC)c5ncnn5c4)c(C(C)C)cc32)CC1` [Example 194], the half-inhibitory concentration (IC50) against human TLR7 is 2.28 nM; against human TLR9 it was 2.08 µM.
On to `CCN1CCC[C@@H](n2c(=O)[nH]c3cc(-c4cc(C)c5ncnn5c4)c(C)cc32)C1` [Example 16, (R)-1-(1-ethylpiperidin-3-yl)-6-methyl-5-(8-methyl-[1,2,4]triazolo[1,5-a]pyridin-6-yl)-1,3-dihydro-2H-benzo[d]imidazol-2-one], for which the half-maximal inhibitory concentration (IC50) came to 17 nM at human TLR7 and 8.95 µM against human TLR9.
Take `COCCN1CCC(n2c(=O)[nH]c3cc(-c4cc(OC)c5ncnn5c4)c(C(C)C)cc32)CC1` [Example 223, 6-isopropyl-5-(8-methoxy-[1,2,4]triazolo[1,5-a]pyridin-6-yl)-1-(1-(2-methoxyethyl)piperidin-4-yl)-1,3-dihydro-2H-benzo[d]imidazol-2-one]: the concentration for half-maximal inhibition (IC50) on human TLR7 was found to be 16.9 nM; against human TLR9 it was 13.2 µM.
The corresponding values for `CCCN[C@H]1CC[C@@H](n2c(=O)[nH]c3cc(-c4cc(OC)c5ncnn5c4)c(C(C)C)cc32)CC1` [Example 195, 6-isopropyl-5-(8-methoxy-[1,2,4]triazolo[1,5-a]pyridin-6-yl)-1-((1 s,4s)-4-(propylamino)cyclohexyl)-1,3-dihydro-2H-benzo[d]imidazol-2-one] are 1.39 nM and 13.9 µM.
The corresponding values for `Cc1c(-c2cc3[nH]c(=O)n([C@H]4CC[C@@H](NCC5CCOCC5)CC4)c3cc2C(C)C)cn2ncnc2c1C` [Example 200, 5-(7,8-dimethyl-[1,2,4]triazolo[1,5-a]pyridin-6-yl)-6-isopropyl-1-((1s,4s)-4-(((tetrahydro-2H-pyran-4-yl)methyl)amino)cyclohexyl)-1,3-dihydro-2H-benzo[d]imidazol-2-one] are 9.02 nM and 7.05 µM.
For the compound `COc1cc(-c2cc3[nH]c(=O)n(C4CCC(N5CC(O)(C(F)(F)F)C5)CC4)c3cc2C(C)C)cn2ncnc12` (single isomer, unassigned) [Example 241, 1-(4-(3-hydroxy-3-(trifluoromethyl)azetidin-1-yl)cyclohexyl)-6-isopropyl-5-(8-methoxy-[1,2,4]triazolo[1,5-a]pyridin-6-yl)-1,3-dihydro-2H-benzo[d]imidazol-2-one], the IC50 on human TLR7 was 3.01 nM; at human TLR9, greater than 50 µM.
On to `COc1cc(-c2cc3[nH]c(=O)n([C@H]4CC[C@@H](NC5CCOCC5)CC4)c3cc2C(C)C)cn2ncnc12` [Example 193, 6-isopropyl-5-(8-methoxy-[1,2,4]triazolo[1,5-a]pyridin-6-yl)-1-((1s,4s)-4-((tetrahydro-2H-pyran-4-yl)amino)cyclohexyl)-1,3-dihydro-2H-benzo[d]imidazol-2-one], for which the IC50 at human TLR7 was found to be 2.22 nM; against human TLR9, 21.4 µM.
The corresponding values for `CCc1cc2c(cc1-c1cc(OC)c3ncnn3c1)[nH]c(=O)n2[C@@H]1CCCN(C2CCCOC2)C1` (stereo partly drawn) [Example 215, 6-ethyl-5-(8-methoxy-[1,2,4]triazolo[1,5-a]pyridin-6-yl)-1-((3R)-1-(tetrahydro-2H-pyran-3-yl)piperidin-3-yl)-1,3-dihydro-2H-benzo[d]imidazol-2-one] are 13.4 nM and 21 µM.
The corresponding values for `CCC(CC)CN[C@H]1CC[C@@H](n2c(=O)[nH]c3cc(-c4cn5ncnc5c(C)c4C)c(C(C)C)cc32)CC1` [Example 198] are 4.92 nM and 2.13 µM.
For the compound `CCc1cc2c(cc1-c1cc(OC)c3ncnn3c1)[nH]c(=O)n2[C@@H]1CCCN(CC(C)(C)C)C1` [Example 180, (R)-6-ethyl-5-(8-methoxy-[1,2,4]triazolo[1,5-a]pyridin-6-yl)-1-(1-neopentylpiperidin-3-yl)-1,3-dihydro-2H-benzo[d]imidazol-2-one], the half-maximal inhibitory concentration (IC50) was found to be 1.42 nM against human TLR7 and 10.3 µM against human TLR9.
The corresponding values for `COc1cc(-c2cc3[nH]c(=O)n([C@H]4CCCN(CCS(C)(=O)=O)C4)c3cc2C(C)C)cn2ncnc12` [Example 222, (S)-6-isopropyl-5-(8-methoxy-[1,2,4]triazolo[1,5-a]pyridin-6-yl)-1-(1-(2-(methylsulfonyl)ethyl)piperidin-3-yl)-1,3-dihydro-2H-benzo[d]imidazol-2-one] are 138 nM and greater than 50 µM.
The corresponding values for `Cc1cc2c(cc1-c1cc(C)c3ncnn3c1)[nH]c(=O)n2[C@@H]1CCCN(C(C)C)C1` [Example 17, (R)-1-(1-isopropylpiperidin-3-yl)-6-methyl-5-(8-methyl-[1,2,4]triazolo[1,5-a]pyridin-6-yl)-1,3-dihydro-2H-benzo[d]imidazol-2-one] are 13.1 nM and 5.69 µM.
